Data as given in patent US10183011B2, “Anti-depression compounds” (Board of Regents of the University of Texas System, priority 2009, dated 2019).
Entries after “also recorded” stand apart in the source; their conditions may differ.

Key:
[1] = tested on: hippocampal neurogenesis in the DG; experiment: Comparison of P7C3 compounds and antidepressant drugs: DG BrdU labeling after i.c.v. infusion; type: in vivo, mouse; settings: 10 μM i.c.v. for 7 days
From the text: The neuroprotective efficacies of both P7C3 and P7C3-A20 were next compared to currently marketed antidepressant medications, using screening conditions identical to those by which P7C3 was originally discovered. This experiment was based on the antidepressant actions of P7C3 and P7C3-A20 characterized here, and the dependence on hippocampal neurogenesis for behavioral efficacy of some marketed antidepressant medications in mice.
Proneurogenic efficacies in the DG of P7C3 and P7C3A20 were compared to those of vehicle (artificial cerebrospinal fluid) and several marketed antidepressant compounds (Sigma-Aldrich, St. Louis, Mo.) according to established methods. In brief, mice were housed individually in cages without running wheels or any form of environmental enrichment, in order to create an environment predicted to have as low of a baseline level of hippocampal neurogenesis as possible. Compounds (10 μM, i.c.v.) were administered for 7 days via subcutaneously implanted Alzet osmotic minipumps connected to a cannula directed into the left lateral ventricle, with implantation day designated as day 0. Starting on day 1, mice also received daily injections of BrdU (50 mg/kg, i.p.) at 9 am daily, for 6 days. Twenty four hours after the sixth BrdU injection, mice were transcardially perfused as described above.

[2] = tested on: neural precursor cells in the subgranular zone of the dentate gyrus; experiment: In vivo pro-neurogenic efficacy/neuroprotection assay: intracerebroventricular infusion, BrdU incorporation in the dentate gyrus; set-up: species or system mouse (C57/Bl6); settings: direct administration into the brain via Alzet minipumps for one week, 10 μM unless stated
Procedure: Compounds were evaluated for pro-neurogenic efficacy/neuroprotection in our standard in vivo assay at 10 μM concentration in four 12 week old adult male C57/Bl6 mice.
In an effort to identify compounds that might stimulate the birth of new neurons, or protect newborn neurons from cell death, a library of 1,000 compounds was screened using an in vivo assay. In the initial screen, compounds were randomly pooled into groups often and administered intracerebroventricularly at a constant rate over seven days into the left lateral ventricle of living mice via Alzet osmotic mini-pumps. Compounds were administered at a concentration of 10 μM for each molecule, making a total solute concentration of 100 μM. After seven days of infusion at a constant rate of 0.5 μL/hour, a total of 84 μL of volume will have left the pump (0.00084 μMoles) and entered the cerebrospinal fluid. The average volume of a brain from a 12 week old male, C57/B6 mouse in our study is 500 mm^3. […] Under these conditions, at the end of one week of infusion each compound would be present at 1.7 μMolar concentration. Since the actual amount of chemical compound in the brain is likely to be only a fraction of this predicted level, it is reasonable to estimate that compounds were administered at mid to low-nanomolar concentrations.
During compound infusion, animals were intraperitoneally (IP) injected daily with the thymidine analog, bromodeoxyuridine (BrdU), as a means of scoring the birth and survival of proliferating neural precursor cells in the hippocampus. Because both social interaction and voluntary exercise are known to stimulate hippocampal neurogenesis, mice were housed individually without access to running wheels throughout the screening period. Following the week-long period of compound administration, animals were perfused and sacrificed. Dissected brain tissue was fixed, embedded, sectioned, stained with antibodies to BrdU, and evaluated by light microcopy as a means of quantifying neurogenesis and survival of newborn neural precursor cells localized to the subgranular layer of the dentate gyrus on the brain hemisphere contralateral to the side of mini-pump cannulation. Every fifth section throughout the entire rostral-caudal extent of the hippocampus was analyzed, and the total number of BrdU+ cells was normalized against the measured volume of the dentate gyrus. Because both increased proliferation and survival of newborn neurons are important screening parameters, the screen was conducted over seven days in order to cast a wide net to detect molecules that might augment either process. […] Intracranial infusions of either fibroblast growth factor 2 (FGF-2) or artificial cerebral spinal fluid (aCSF) vehicle via the same, week-long protocol were employed as positive and negative controls. There was no difference in the number of BrdU-labeled cells in the dentate gyrus between mice subjected to surgical pump implantation and infusion with vehicle, and mice having had no surgery (FIG. 2). This confirmed the validity of the in vivo approach to assess the ability of intracerebroventricularly infused compounds to enhance hippocampal neurogenesis in the contralateral hemisphere.
In order to further study Example 45 Compound, an in vivo structure activity relationship (SAR) study was conducted using 37 chemical derivatives of the compound for pro-neurogenic activity via direct administration into the brain of adult mice via Alzet minipumps. Compounds were administered for one week at 10 uM into 4 mice per compound, along with daily IP injections of BrdU. Following compound administration, animals were perfused, sacrificed and subjected to sectioning, staining and light microscopy in order to monitor hippocampal neurogenesis localized to the subgranular layer of the dentate gyrus. Roughly 10% of the variant compounds retained pro-neurogenic activity indistinguishable from the parent compound. […]

[3] = tested on: SNc dopaminergic neurons; experiment: MPTP-toxicity to SNc dopaminergic neurons, treatment started 24 hours after the last MPTP dose; type: in vivo, mouse (C57Bl/6); settings: new analogs, 10 mice for each compound
Procedure: FIG. 29A and FIG. 29B. Neuroprotective efficacy of P7C3 and P7C3A20 from MPTP-toxicity to SNc dopaminergic neurons. FIG. 29A—Test compounds were evaluated by dose response assay for their ability to block MPTP-neurotoxicity in the SNc. […] VEH group contained 30 animals: 15 animals that received the P7C3A20/P7C3 vehicle, and 15 animals that received Dimebon vehicle (saline). […] Representative immunohistochemical pictures of TH-staining in the SNc are shown below the graph. Dosing is expressed as total mg/day, and was administered intraperitoneally in divided doses twice daily. Data are expressed as mean±SEM. […] P7C3A20 does so with greater effect, and Dimebon offers no protection. Striatal sections were obtained from the same mice used in FIG. 2, and compound treatment groups are from mice that received a dose of 20 mg/kg/d.
We compared the protective efficacy of our agents in the Tatton and Kish model of MPTP administration, which induces prolonged apoptotic death of SNc dopaminergic neurons lasting about 3 weeks after a short course of daily MPTP administration. Mice were treated daily for 5 days with 30 mg/kg/day free base MPTP. On the sixth day, 24 hours after receiving the fifth and final dose of MPTP, daily treatment with P7C3, P7C3A20, Dimebon or vehicle was initiated. […] Dose-response studies were conducted in which mice received twice daily doses of each compound (or vehicle) for the ensuing 21 days (FIG. 29A). […] At the end of the 21 day treatment period, mice were sacrificed by transcardial perfusion with 4% paraformaldehyde, and fixed brains were sectioned through the striatum and SNc at 30 μM intervals. Every fourth section (spaced 120 μM apart) was stained with antibodies specific to tyrosine hydroxylase (TH) (Abcam, rabbit anti-TH, 1:2500). The TH enzyme catalyzes the conversion of the amino acid L-tyrosine to L-3,4-dihydroxyphenylalanine (L-DOPA), which serves as the precursor for dopamine. TH staining thus provides a means to immunohistochemically identify dopaminergic neurons. By counting the number of TH+ cells in the SNc, we were able to assess the neuroprotective efficacy of the three chemicals following MPTP exposure. All microscopic analysis was performed by two investigators, blind to treatment group.
15 adult male C57Bl/6 mice were individually housed for one week and then injected daily for 5 days with 30 mg/kg/day (i.p.) free base MPTP (Sigma). On day 6, 24 hours after receiving the fifth and final dose of MPTP, daily treatment with P7C3, P7C3A20, Dimebon or vehicle was initiated. Mice were housed in disposable caging, and protective gear and precautions were implemented for handling MPTP in accordance with UT Southwestern Medical Center policy. Dose response studies were conducted in which mice received twice daily doses of each compound (or vehicle) by intraperitoneal injection for the following 21 days, after which mice were sacrificed by transcardial perfusion with 4% paraformaldehyde. Brains were dissected, fixed overnight in 4% paraformaldehyde, and cryoprotected in sucrose for freezing by standard procedures. Frozen brains were sectioned through the striatum and SNc at 30 uM intervals, and every fourth section (spaced 120 μM apart) was stained with antibodies directed against tyrosine hydroxylase (TH) (Abcam, rabbit anti-TH, 1:2500). Diaminobenzidine was used as a chromagen, and tissue was counter-stained with hematoxylin to aid in visualization of the neuroanatomy. Images were analyzed with a Nikon Eclipse 90i motorized research microscope with Plan Apo lenses coupled with Metamorph Image Acquisition software (Nikon). TH+ neurons were counted with Image J software (NIH) in every section by 2 blinded investigators and results were averaged and multiplied by the sectioning interval to determine the total number of TH+ neurons per SNc.

Row | Compound | increase of DG neurogenesis (BrdU labeling) over vehicle [1] | pro-neurogenic activity in the in vivo hippocampal neurogenesis assay [2] | activity in the MPTP protection assay [3] | further results
1 | N[C@@H]1C[C@H]1c1ccccc1 (racemic) [tranylcypromine] | did not affect the magnitude of neurogenesis | – | – | –
2 | COc1cccc(NCC(F)Cn2c3ccc(Br)cc3c3cc(Br)ccc32)c1 (single isomer, unassigned) [Example 144a, N-(3-(3,6-dibromo-9H-carbazol-9-yl)-2-fluoropropyl)-3-methoxyaniline] | – | more active than P7C3-S114 | – | –
3 | COc1cccc(NCC(O)Cn2c3ccc(Br)cc3c3cc(Br)ccc32)c1 (single isomer, unassigned; (+)) [(+) (dextrorotatory) enantiomer of 1-(3,6-Dibromo-9H-carbazo] | – | higher activity | – | –
4 | COc1cccc(NCC(O)Cn2c3ccc(Br)cc3c3cc(Br)ccc32)c1 (single isomer, unassigned; (-)) [(−) (levorotatory) enantiomer of 1-(3,6-Dibromo-9H-carbazol-] | – | lower activity | – | –
5 | COc1cccc(NCC(O)Cn2c3ccc(Br)cc3c3cc(Br)ccc32)c1 (single isomer, unassigned; (-)) [(−) enantiomer of Example 62 Compound, 1-(3,6-Dibromo-9H-carbazol-9-yl)-3-(3-methoxyphenylamino)-propan-2-ol] | – | displayed diminished activity | – | –
6 | COc1cccc(NCC(O)Cn2c3ccc(Br)cc3c3cc(Br)ccc32)c1 (stereo not shown) [Example 62 Compound, 1-(3,6-Dibromo-9H-carbazol-9-yl)-3-(3-methoxyphenylamino)-propan-2-ol] | – | activity comparable to Example 45 Compound; also recorded: retained robust activity | – | –
7 | OC(CSc1ccccc1)Cn1c2ccc(Br)cc2c2cc(Br)ccc21 (stereo not shown) [Example P7C3-S7] | – | active in both | active in both | pro-neurogenic activity in the in vivo hippocampal neurogenesis assay ([2]; listed as P7C3S7): potency equal to or greater than P7C3 in both in vivo assays; activity in the MPTP protection assay ([3]; listed as P7C3S7): potency equal to or greater than P7C3 in both in vivo assays
8 | OC(CNc1ncccn1)Cn1c2ccc(Br)cc2c2cc(Br)ccc21 (stereo not shown) [Example P7C3-S8] | – | devoid of activity in both assays | devoid of activity in both assays | –
9 | Cc1cc(C)n(CC(O)Cn2c3ccc(Br)cc3c3cc(Br)ccc32)n1 (stereo not shown) [Example P7C3-S25] | – | active in both | active in both | –
10 | COc1cccc(NCC(C)(O)Cn2c3ccc(Br)cc3c3cc(Br)ccc32)c1 (stereo not shown) [Example P7C3-S54] | – | retain neuroprotective activity in both assays | retain neuroprotective activity in both assays | –
11 | O=C(O)Cn1c2ccc(Br)cc2c2cc(Br)ccc21 [Example P7C3-S165] | – | neuroprotection was observed in both assays | neuroprotection was observed in both assays | –
12 | OC(COc1ccccc1)Cn1c2ccc(Br)cc2c2cc(Br)ccc21 (stereo not shown) [Example P7C3S40] | – | neuroprotective activity in both assays resides exclusively in the S enantiomer | neuroprotective activity in both assays resides exclusively in the S enantiomer | –
13 | O[C@H](COc1ccccc1)Cn1c2ccc(Br)cc2c2cc(Br)ccc21 [Example P7C3S41] | – | neuroprotective activity in both assays resides exclusively in the S enantiomer; also recorded: potency equal to or greater than P7C3 in both in vivo assays | neuroprotective activity in both assays resides exclusively in the S enantiomer; also recorded: potency equal to or greater than P7C3 in both in vivo assays | –
14 | CC(NC(C)(C)C)C(=O)c1cccc(Cl)c1 (stereo not shown) [bupropion] | about 49% | – | – | –
15 | CN(C)CCCN1c2ccccc2CCc2ccc(Cl)cc21 [clomipramine] | ~75% | – | – | –
16 | CNCCC(Oc1ccc(C(F)(F)F)cc1)c1ccccc1 (stereo not shown) [fluoxetine] | did not affect the magnitude of neurogenesis | – | – | –
17 | CN(C)CCCN1c2ccccc2CCc2ccccc21 [imipramine] | did not affect the magnitude of neurogenesis | – | – | –
18 | CN1CCN2c3ncccc3Cc3ccccc3C2C1 (stereo not shown) [mirtazapine] | did not affect the magnitude of neurogenesis | – | – | –
19 | CNCCC=C1c2ccccc2CCc2ccccc21 [nortriptyline, nortrypline] | did not affect the magnitude of neurogenesis | – | – | –
